# Where “and” joins values, the source holds several entries; their conditions need not be identical. Equal values may be shown once.
# How the values were obtained:
# white rats = experiment: Long-term (6 months) work capacity in trained and non-trained rats; details: for Glycogen in m. quadriceps, After work / Glycogen in m. quadriceps, In rest: end of experiments; for Swimming time After 6 mo.: INO 25 mg/kg, PO 50 mg/kg
# Description: Seventy two white rats were randomly placed in 6 groups (12 animals each), to test the effectiveness of training and to determine morphological and physiological alterations in the rats. In Group I, control rats were nontrained and not administered either of inosine or the combination of inosine and orotate; Group II comprised non-trained rats to which were administered inosine (25 mg/kg/body weight; Group III comprised non-trained rats to which were administered the combination of inosine plus potassium orotate (25 mg/kg/body weight of inosine and 50 mg/kg/body weight potassium orotate); Group IV comprised trained rats that were not administered either of inosine or the combination of inosine and orotate; Group V comprised trained rats to which was administered inosine alone (25 mg/kg/body weight), and Group VI comprised trained rats to which was administered the combination of inosine plus potassium orotate (25 mg/kg/body weight of inosine and 50 mg/kg/body weight potassium orotate).
# Training of rats consisted of their forced swimming in a water bath (28-30° C.) with a weight fixed on their backs (7.5% of the rat body weight). During the first two weeks the animals swam daily for 5-10 minutes, after which we determined the individual maximum time of swimming to exhaustion (i.e. maximum work capacity) for each animal and then calculated the mean maximum time for each group. After 2 weeks these initial maximum work capacity values were used for planning and performing additional swimming training.
# The functional condition of the rats at rest was estimated from their work capacity (maximum swimming time), body weight increase, EKG tests, oxygen consumption and sodium and potassium levels in the myocardium in a relatively quiet state. The morphological state of the heart and other viscera were rated from their absolute and relative weights, and also from histological and histochemical examinations of the myocardium. Also determined were the amounts of glycogen in the m. quadriceps (quadriceps group of muscles) of the hip, the myocardium and the liver. All the quantitative results obtained were processed with conventional statistical procedures.
# [1] = test system: rats with experimental aortic stenosis; experiment: Long term (12 month) experimental aortic stenosis; format: in vivo, rat; details: for Mortality %: 12 month study, 15 rats per group, inosine 25, potassium orotate 50 mg/kg/day from day 45 for 10.5 months, untreated stenosis 47
# Description: A 12 month study using 60 white unbred male rats with initial body weights of 110-120 g, divided into four experimental groups, each group with 15 rats. Group I included intact animals (controls); Group II—rats with experimental aortic stenosis (untreated stenosed controls); Group III rats with experimental aortic stenosis given inosine in doses of 25 mg/kg/day; and Group IV rats with experimental aortic stenosis given both inosine and an orotic acid (in the instant study potassium orotate was used, however, as the orotic acid comprises 93-95% percent of any of the orotates, the results achieved are indicative of usage of any of the orotates including the potassium orotate used herein) combination in doses of 25 and 50 mg/kg/day, respectively, intragastrically, using a metal curved tube, beginning from the 45th day after the creation date of the abdominal aortic stenosis, and continuing for 10.5 months. The abdominal aortic stenosis was produced by the method of Beznak, referred to hereinabove, modified by Kogan, referred to above.
# During the experimental period the animals in all four groups had regular measurements (recordings) of body weight and the 3-standard lead EKG-ms and 5-plane pericardial vector-cardiograms (VCG). At the beginning and end of the experimental period they also underwent tests for the endurance of a single, dosed physical exercise—forced swimming in a pool at 28-30° C., until maximally exhausted. Specifically, an animal had fixed to its tail a lead weight weighing approximately 7.5% percent of the animal's body weight became submerged due to the inability to continue swimming. At the end of the experimental period, the animals were sacrificed, and their hearts, thymuses, livers, adrenals and thyroids were weighed and their relative weights per 100 g body weight were calculated and recorded. Histological figures of sectioned cardiac muscle stained with hematoxilin-eosin were prepared by Van Hison's technique and examined for any attendant alterations in the normal histology of the heart. During the experiment, (untreated aortic stenosis) 8 of the 15 rats in Group II died, while in Group III (treated stenosis w/inosine) and Group IV (treated stenosis w/inosine and potassium orotate)—only 3 rats in each group died. […] The observed time period wherein the rats could swim were as follows: Groups I animals 45±2.0 minutes; Group II 6.5±2.1 minutes; Group III 16±1.2 minutes; and Group IV 32±4 minutes, respectively. Thus, the group receiving the combination of inosine and potassium orotate performed far better than Group II (untreated stenosis) and had doubled the work capacity of Group III (treated with inosine only). The relative weight of the heart in animals in Groups II, III and IV was higher than in Group I (control group) by 67%, 36% and 56%, respectively. (See Tables 2 A-B). The hearts of Group II animals were in the state of eccentric hypertrophy which explains the higher weight (see FIG. 5). The left ventricular wall in the animals of Group II was 8% thinner than in rats of Group I as a result of the eccentric condition. In rats of Groups III and IV the left ventricular wall was 30% and 46% thicker, respectively, than the rats in group I and they were all in the state of concentric heart hypertrophy.
smiles,measurement,setting,value
OC[C@H]1O[C@@H](n2cnc3c(O)ncnc32)[C@H](O)[C@@H]1O [inosine],animal body weights,white rats; after 6 months,did not materially alter animal body weights
same,HEART RATE,white rats; after 6 months training,300 ± 5.2 beats per minute
same,PQ,white rats; after 6 months training,0.047 ± 0.03
same,QRS,white rats; after 6 months training,0.031 ± 0.004
same,QT,white rats; after 6 months training,0.076 ± 0.001
same,Systolic Index,white rats; after 6 months training,38 ± 6.3
same,ΣR,white rats; after 6 months training,17 ± 0.5 mm
same,"toxic effects on the functional state of the animals, morphology of the myocardium","white rats; rat, in vivo",did not manifest any toxic effects
same,Heart weight after 6 mo.,white rats; trained rats,359 ± 3.9 mg/100gk BW
same,ORGAN WEIGHT Heart,white rats; trained rats,359.3 ± 4.5 mg PER 100 GRAMs Body Weight
same,P/S In all rats group,white rats; trained rats,1.34 ± 0.12
same,P/S In quiet state,white rats; trained rats,1.16 ± 0.08
same,P/S In rat sacrificed after intense physical exercise,white rats; trained rats,1.55 ± 0.04
same,Potassium (myocardium),white rats; trained rats,0408 ± 0.015 mcq/gram dry tissue
same,Sodium (myocardium),white rats; trained rats,0.304 ± 0.018 mcq/gram dry tissue
same,Swimming time Before,white rats; trained rats,65 ± 6.6 min
same,"Glycogen in m. quadriceps, After work",white rats; trained rats,558 ± 13.4
same,"Glycogen in m. quadriceps, In rest",white rats; trained rats,889 ± 26.0
same,Swimming time After 6 mo.,"white rats; trained rats, trained control 142 ± 2.4",180 ± 3.4 min
same,Heart weight after 6 mo.,white rats; untrained rats,302 ± 91 mg/100gk BW
same,ORGAN WEIGHT Heart,white rats; untrained rats,309.4 ± 9.7 mg PER 100 GRAMs Body Weight
same,Oxygen consumption End of experiment,white rats; untrained rats,26.0 ± 0.82 ml/min/kg BW
same,P/S In all rats group,white rats; untrained rats,1.85 ± 0.05
same,P/S In quiet state,white rats; untrained rats,2.01 ± 0.3
same,P/S In rat sacrificed after intense physical exercise,white rats; untrained rats,1.67 ± 0.09
same,Potassium (myocardium),white rats; untrained rats,0481 ± 0.03 mcq/gram dry tissue
same,Sodium (myocardium),white rats; untrained rats,0.261 ± 0.018 mcq/gram dry tissue
same,Swimming time Before,white rats; untrained rats,65 ± 5.0 min
same,"Glycogen in m. quadriceps, After work",white rats; untrained rats,450 ± 28.3
same,"Glycogen in m. quadriceps, In rest",white rats; untrained rats,829 ± 42.0
same,Swimming time After 6 mo.,white rats; untrained rats,70 ± 4.0 min
same,HEART RATE,"white rats; untrained, after 6 months",452 ± 8.6 beats per minute
same,PQ,"white rats; untrained, after 6 months",0.054 ± 0.003
same,QRS,"white rats; untrained, after 6 months",0.026 ± 0.003
same,QT,"white rats; untrained, after 6 months",0.06 ± 0.001
same,Systolic Index,"white rats; untrained, after 6 months",42.5 ± 9.7
same,ΣR,"white rats; untrained, after 6 months",14 ± 0.7 mm
same,EKG QRS 1½ months,[1]; 1½ months (before treatment),0.021 ± 0.004 s
same,EKG R Wave Voltage 1½ months,[1]; 1½ months (before treatment),0.38 ± 0.05 mV
same,EKG Stroke Index 1½ months,[1]; 1½ months (before treatment),47 ± 10%
same,Heart Rate 1½ months,[1]; 1½ months (before treatment),410 ± 11 beats/min
same,T Wave Voltage 1½ months,[1]; 1½ months (before treatment),0.21 ± 0.01 mV
same,Mortality %,[1],20%
same,Mortality %,[1]; listed as Inosine,20%
same,EKG QRS 12 months,[1]; 12 months,0.022 ± 0.001 s
same,EKG R Wave Voltage 12 months,[1]; 12 months,0.9 ± 0.09 mV
same,EKG Stroke Index 12 months,[1]; 12 months,34 ± 1.2%
same,Heart Rate 12 months,[1]; 12 months,420 ± 16 beats/min
same,T Wave Voltage 12 months,[1]; 12 months,0.29 ± 0.05 mV
same,left ventricular wall thicker than in Group I,[1]; 12 months,30%
same,relative weight of the heart higher than in Group I (control),[1]; 12 months,36%
same,QRS-T angle 120° to 180°,[1]; 12 months after surgery,5
same,Relative weight of Heart,[1]; 12 months after surgery,387 ± 9.5 mg/100 g
same,Thickness of Left Ventricular Wall,[1]; 12 months after surgery,3.9 ± 0.14 mm
same,VGC QRS Amplitude,[1]; 12 months after surgery,3.2 ± 0.12 mV
same,VGC QRS Area,[1]; 12 months after surgery,8.3 ± 1.1 cm^2
same,VGC QRS Not closed,[1]; 12 months after surgery,58%
same,VGC T Amplitude,[1]; 12 months after surgery,0.6 ± 0.01 mV
same,Working capacity (min) 1½ months,"[1]; forced swimming, 1½ months after surgery (treatment began on the 45th day)",43 ± 4.6 min
same,Working capacity (min) 12 months,"[1]; forced swimming, 12 months after surgery, 10.5 months of treatment",16 ± 1.2 min and 16 ± 1.3 min
same,"appearance of the myocardium, light micrographs (FIG. 6)",[1]; haemotoxylin-eosin stained sections,normal appearance
same,rats that died during the experiment,"[1]; of 15 rats per group, untreated stenosis 8",3 rats
same,development of cardiac eccentric hypertrophy,[1]; prolonged administration,prevented development of cardiac eccentric hypertrophy
same,"ultrastructure of left ventricular myocardium, mitochondria (FIG. 7)","[1]; rat, in vivo",normal sized mitochondria
same,critical heart weight enhanced by,[1]; versus critical weight of rats with the same body weight,16%

# Reference: patent US20100190737A1, “COMPOSITIONS COMPRISING INOSINE AND OROTIC ACID AND METHODS OF USE THEREOF FOR THE TREATMENT OF CERTAIN HEART CONDITIONS AND ENHANCEMENT OF WORK CAPACITY” (NUTRITIONAL RESEARCH GROUP LLC, priority 2009, published 2010)
